The results in this text go back to US20220053773A1 (priority 2018, published 2022).

Converted amounts (≈) assume the structure as drawn. Where two headings read alike, the source gives them in different places. Bridge positions count the residues as written; N and C are the ends. Ends that are not written are not given here. Peptide text beside a SMILES is read from it.

One data set has as its system E. coli ATCC 25922. Particulars: for MIC-E. coli (μM) 25922: Table 6; for MIC-E.Coli (μM) 25622: Table 9 lower part, c1.
The test system of data set [1] is X. fastidiosa (PD strain).
The subject of data set [2] is P11-resistant E. coli ATCC 25922.
Data set [3] has as its system P11-resistant E. coli BL21.
The next data set deals with E.Coli 14028. Particulars: Table 9 lower part, c2.
For another data set, the system named is Pseudomonas WT 27853. The settings on record: for MIC-human (μm) Pseudomonas WT 27853: Table 9 lower part, c5.
Data set [4] relates to X. fastidiosa (Xf) in infected grapevines. The settings on record: in vivo.
The next data set concerns Salmonella. Particulars: for MIC-human (μm) Salmonella: Table 9 lower part, c4.
The test system of data set [5] is Pseudomonas Resistant BAA-2114.
Data set [6] concerns Xanthomonas Perforans BAA983.
Data set [7] has as its system Xanthomonas Euvesicatoria 11633.
The next data set concerns E. coli K12. The settings on record: Table 3, K12-WT.
The test system of data set [8] is P11-resistant E. coli K12. The settings on record: Table 3, K12-R.
Another data set has as its system E. coli BL21. The settings on record: Table 3, BL21-WT.
Data set [9] has as its system N. benthamiana mesophyll protoplasts.
The subject of data set [10] is human and plant gram-negative bacteria.
For data set [11], the system named is human cells (red blood cells, immune cells HL-60, lung/skin epithelial cells).

Take “HPLIKLIKKILKKGPGRKKLIKKILKILGH [Peptide 30P1]”: the “MIC-E. coli (μM) 25922” value against E. coli ATCC 25922 is 0.9 to 1.25 µM.

Turning to “LIRLLRRILRRGPGRRRLIRRLLRIL [Peptide 26P3]”, the “MIC-plant bacteria (μM) Xylela fastidiosa (grape)” value in data set [1] is 4.8 µM.

In the case of KKLIKKILKIL [Peptide P11, KKLIKKILKIL], the MIC (in general, the lowest concentration found to suppress growth) in [2] turned out to be 192 ± 8.3 µM; in data set [3], 194 ± 12.5 µM. Moreover, the “MIC values ATCC” value in data set [2] came to 200 µM. Moreover, the “MIC values BL21” value in data set [3] (BL21) came to 194 µM. The “MIC (μM) X. fastidiosa (PD strain)” value in data set [1] fell in the range of 10 to 20 µM.

As to `CC[C@H](C)[C@H](NC(=O)[C@H](CCCCN)NC(=O)[C@H](CC(C)C)NC(=O)[C@@H](NC(=O)[C@H](CCCCN)NC(=O)[C@H](CCCCN)NC(=O)[C@@H](NC(=O)[C@H](CC(C)C)NC(=O)[C@H](CCCCN)NC(=O)[C@@H](N)CCCCN)[C@@H](C)CC)[C@@H](C)CC)C(=O)N[C@@H](CC(C)C)C(=O)NC` [Peptide 11P3, KKLIKKILKIL-(NHCH3)] (H-KKLIKKILKIL-NHMe), the “MIC-E. coli (μM) 25922” value in the data set on E. coli ATCC 25922 was determined as 3.7 ± 0.5 µM (≈ 5 µg/mL).

As to “EALRSRLEKRIYILYRDTPVVKSSSRQREELLRISLRELE [Peptide 40P1]”, the “MIC-E. coli (μM) 25922” value in the data set on E. coli ATCC 25922 was greater than 20 µM.

Turning to “KLIRLIREILRRGPGRRRLIREILRILK [Peptide 28P6]”, in the data set with E. coli ATCC 25922, the “MIC-E. coli (μM) 25922” value is 4.8 µM and the “MIC-E.Coli (μM) 25622” value turned out to be 4.8 µM. Further, the “MIC-plant (μm) Xylela fastidiosa (grape)” value in data set [1] is on record as 2.5-5(2) μM. Moreover, the “MIC-E.Coli (μM) 14028” value with E.Coli 14028 stood at 20 µM. In addition, in the data set on Pseudomonas WT 27853, the “MIC-human (μm) Pseudomonas WT 27853” value is 5 to 10 µM.

Turning to “KKLIKKILKILGPGRKKLIKEILKILGPGRKKLIKKILKIL [Peptide 41P1]”, the “MIC-E. coli (μM) 25922” value against E. coli ATCC 25922 was 4.50 ± 0.25 µM.

Regarding `CC[C@H](C)[C@H](NC(=O)[C@H](CCCNC(=N)N)NC(=O)[C@H](CC(C)C)NC(=O)[C@@H](NC(=O)[C@H](CCCNC(=N)N)NC(=O)[C@H](CCCNC(=N)N)NC(=O)[C@@H](NC(=O)[C@H](CC(C)C)NC(=O)[C@H](CCCNC(=N)N)NC(=O)[C@@H](N)CCCNC(=N)N)[C@@H](C)CC)[C@@H](C)CC)C(=O)N[C@@H](CC(C)C)C(=O)NC` [Peptide 11P5, RRLIRRILRIL-(NCH3)] (H-RRLIRRILRIL-NHMe; N-terminus and C-terminus assumed), the “MIC-E. coli (μM) 25922” value against E. coli ATCC 25922 came to 6.7 ± 0.9 µM (≈ 9.99 µg/mL).

For “LIRLIRRILRRGPGRRRLIRRILRIL [Peptide 26P-1]”, the “MIC values ATCC” value in data set [2] was found to be 10 µM. Also, in [3] (BL21), the “MIC values BL21” value was 4 µM. For the same molecule, the “MIC (μM) X. fastidiosa (PD strain)” value in [1] was determined as 4.75 µM.

In the case of “KLIKLIKKILKKGPGRKKLIKKILKILK [Peptide 28P4]”, in [4], the “% Xf clearance from bark by qPCR” value is on record as “completely clear” and the “% Xf clearance from green leaves by qPCR” value was “completely clear”. In the data set on E. coli ATCC 25922, the “MIC-E. coli (μM) 25922” value is 2.1 µM and the “MIC-E.Coli (μM) 25622” value was determined as 2.1 µM. For the same molecule, the “MIC (μM) X. fastidiosa (PD strain)” value in data set [1] is 3.0 ± 0.1 µM. In addition, in the data set on Salmonella, the “MIC-human (μm) Salmonella” value amounted to 1.3 µM. For the same molecule, the “MIC-human (μm) Pseudomonas WT 27853” value against Pseudomonas WT 27853 is 1.3 µM. Besides, the “MIC-human (μm) Pseudomonas Resistant BAA-2114” value in data set [5] worked out at 2.5 µM. For the same molecule, the “MIC-plant (μm) Xanthomonas Perforans BAA983” value in data set [6] came to 2.5 µM. For the same molecule, the “MIC-plant (μm) Xanthomonas Euvesicatoria 11633” value in data set [7] came to 2.5 µM.

In the case of “RKQLRELIERLLERIRKLGPGRREQLERLIERLERLIEKR [Peptide 40P3]”, the “MIC-E. coli (μM) 25922” value against E. coli ATCC 25922 is greater than 20 µM.

As for “LIRLIRRILRRGPGRRRLIRRILRIL [Peptide 26P2]”, in the data set with E. coli ATCC 25922, the “MIC-E. coli (μM) 25922” value was in the range of 1.3 to 2.5 µM.

On to “LIKLIKKILKKGPGRKKLIKKILKIL [Peptide P26]”, for which the MIC was determined as 1.65 ± 0.3 µM against E. coli ATCC 25922 (Table 3, ATCC-WT); 9.5 ± 0.7 µM in data set [2]; 1.65 ± 0.3 µM in the data set on E. coli K12; 4.0 ± 0.6 µM in [8]; 1.95 ± 0.3 µM against E. coli BL21; 4.4 ± 0.3 µM in data set [3] (BL21). In the data set on E. coli ATCC 25922, the “MIC-E. coli (μM) 25922” value was determined as 1.7 ± 0.2 µM. Moreover, in [1], the “MIC (μM) X. fastidiosa (PD strain)” value is 4.75 ± 0.25 µM. The “MIC-plant bacteria (μM) Xylela fastidiosa (grape)” value in data set [1] was greater than 20 µM. In addition, the “toxicity to human erythrocytes” value with human erythrocytes is “did not demonstrate toxicity”. The “toxicity to HL60 cells” value in the data set on HL60 cells is given as “did not demonstrate toxicity”. Moreover, in data set [9], the “phytotoxicity, viability of N. benthamiana mesophyll protoplasts” value was “low phytotoxcicity”.

As for “RLLEKRLRRELERELRKQGPGRRLLEKRLRRELERELRKQ [Peptide 40P2]”, the “MIC-E. coli (μM) 25922” value with E. coli ATCC 25922 was greater than 20 µM.

As for “KEIVRRIEKFLRGPGRKRIVERIEKFLR [Peptide 28P8]”, the “MIC-E. coli (μM) 25922” value against E. coli ATCC 25922 was 0.8 ± 0.1 µM. In addition, the “MIC-plant (μm) Xylela fastidiosa (grape)” value in data set [1] was 1.25-2.5(2) μM. In addition, the “MIC-E.Coli (μM) 14028” value in the data set on E.Coli 14028 was in the range of 5 to 10 µM. Further, in the data set on Pseudomonas WT 27853, the “MIC-human (μm) Pseudomonas WT 27853” value was 5 to 10 µM.

With “KRLIQRKRLIQRGPGRKRLIQRKRLIQR [Peptide 28P3]”, in the data set with E. coli ATCC 25922, the “MIC-E. coli (μM) 25922” value is greater than 40 µM and the “MIC-E.Coli (μM) 25622” value was greater than 40 µM. In addition, the “MIC-human (μm) Salmonella” value in the data set with Salmonella is greater than 20 µM. Moreover, in the data set on Pseudomonas WT 27853, the “MIC-human (μm) Pseudomonas WT 27853” value was greater than 20 µM. The “MIC-human (μm) Pseudomonas Resistant BAA-2114” value in [5] is greater than 20 µM. Moreover, in data set [6], the “MIC-plant (μm) Xanthomonas Perforans BAA983” value was determined as 20 µM. For the same molecule, the “MIC-plant (μm) Xanthomonas Euvesicatoria 11633” value in data set [7] stood at 20 µM.

Turning to `CC[C@H](C)[C@H](NC(=O)[C@H](CCCCN)NC(=O)[C@H](CC(C)C)NC(=O)[C@@H]1CSSC[C@H](NC(=O)[C@H](CC(C)C)NC(=O)[C@H](CCCCN)NC(=O)[C@@H](NC(=O)[C@@H](N)CC(C)C)[C@@H](C)CC)C(=O)N[C@@H](CCCCN)C(=O)N[C@@H](CCCCN)C(=O)N[C@@H]([C@@H](C)CC)C(=O)N[C@@H](CC(C)C)C(=O)N[C@@H](CCCCN)C(=O)N[C@@H](CCCCN)C(=O)NCC(=O)N2CCC[C@H]2C(=O)NCC(=O)N[C@@H](CCCNC(=N)N)C(=O)N[C@@H](CCCCN)C(=O)N[C@@H](CCCCN)C(=O)N[C@@H](CC(C)C)C(=O)N[C@@H]([C@@H](C)CC)C(=O)N[C@@H](CCCCN)C(=O)N[C@@H](CCCCN)C(=O)N1)C(=O)N[C@@H](CC(C)C)C(=O)O` [CYS26P] (H-LIKLCKKILKKGPGRKKLIKKCLKIL-OH; disulfide 5-22), the “MIC-E. coli (μM) 25922” value in the data set on E. coli ATCC 25922 amounted to 4.3 ± 0.4 µM (≈ 12.9 µg/mL). Moreover, the “MIC (μM) X. fastidiosa (PD strain)” value in data set [1] is greater than 20 µM. Further, the “MIC-human bacteria (μM) Salmonella” value with Salmonella (Table 9 upper part, c5) was greater than 20 µM. Moreover, the “MIC-human bacteria (μM) Pseudomonas WT” value with Pseudomonas WT 27853 (Table 9 upper part, c6) is greater than 20 µM. Moreover, in the data set on human erythrocytes, the “toxicity to human erythrocytes” value is “did not demonstrate toxicity”. The “toxicity to HL60 cells” value in the data set with HL60 cells is reported as “did not demonstrate toxicity”. In data set [9], the “phytotoxicity, viability of N. benthamiana mesophyll protoplasts” value is reported as “low phytotoxcicity”.

For the molecule “KRIVQRIKDFLRGPGRKRIVQRIKDFLR [Peptide 28P2]”, in the data set on E. coli ATCC 25922, the “MIC-E. coli (μM) 25922” value was 6 (2) μM and the “MIC-E.Coli (μM) 25622” value is listed as 6(2) μM. In [10], the “MIC against one E. coli strain” value turned out to be 6 µM; the “MICs for human and plant bacteria” value is 1.3 to 3 µM. Besides, the “concentration toxic to human cells” value in [11] is “above 20 μM”.

For the molecule `CC[C@H](C)[C@@H]1NC(=O)[C@H](CCCCN)NC(=O)[C@H](CC(C)C)NC(=O)[C@H]([C@@H](C)CC)NC(=O)[C@H](CCCCN)NC(=O)[C@H](CCCCN)NC(=O)[C@H]([C@@H](C)CC)NC(=O)[C@H](CC(C)C)NC(=O)[C@H](CCCCN)NC(=O)[C@H](CCCCN)NC(=O)[C@H](CCCNC(=N)N)NC(=O)CNC(=O)[C@@H]2CCCN2C(=O)CNC(=O)[C@H](CCCCN)NC(=O)[C@H](CCCCN)NC(=O)[C@H](CC(C)C)NC(=O)[C@H]([C@@H](C)CC)NC(=O)[C@H](CCCCN)NC(=O)[C@H](CCCCN)NC(=O)[C@H]([C@@H](C)CC)NC(=O)[C@H](CC(C)C)NC(=O)[C@H](CCCCN)NC(=O)[C@H]([C@@H](C)CC)NC(=O)[C@H](CC(C)C)NC(=O)[C@H](CCCNC(=N)N)NC(=O)CNC(=O)[C@@H]2CCCN2C(=O)CNC(=O)[C@H](CC(C)C)NC1=O` [CYCLIC30P] (cyclo(GPGRKKLIKKILKILGPGRLIKLIKKILKK)), in the data set on E. coli ATCC 25922, the “MIC-E. coli (μM) 25922” value is 12 (2) μM and the “MIC-E.Coli (μM) 25622” value is 12(2) μM.

“ELLRRLLASLRRHDLLRGPGRELLRLLASLRRHDLLR [Peptide 38P1]”: the “MIC-E. coli (μM) 25922” value in the data set with E. coli ATCC 25922 was in the range of 2.5 to 5 µM.

As to “KEIVRRIKEFLRGPGRKEIVRRIKEFLR [Peptide 28P7]”, in the data set with E. coli ATCC 25922, the “MIC-E. coli (μM) 25922” value came out at 4.3 µM and the “MIC-E.Coli (μM) 25622” value came to 4.3 µM. Also, the “MIC-plant (μm) Xylela fastidiosa (grape)” value in data set [1] is on record as 2.5-5(2) μM. The “MIC-E.Coli (μM) 14028” value against E.Coli 14028 amounted to 20 µM. Also, the “MIC-human (μm) Pseudomonas WT 27853” value in the data set with Pseudomonas WT 27853 fell in the range of 5 to 10 µM.
